Experimental data as given in patent US20040038222A1 (priority 2001, published 2004).

Tested on: C57BL/6J and C3H/HeJ primary bone marrow-derived macrophages

Substance: brefeldin A [BFA]
- Effect of BFA alone on viability: no effect
- Susceptibility of resistant macrophages to intoxication with LF in the presence of BFA: completely susceptible
